Results on 16 molecules are retold here after ChEMBL document CHEMBL4017447, “Indenocinnoline derivatives as G-quadruplex binders, topoisomerase IIα inhibitors and antiproliferative agents” (Bioorg Med Chem, 2017).

The nature of assay [1]: Binding affinity to 5'-dabcyl/3'-fluorescein labeled double stranded DNA (unknown origin) assessed as change in melting temperature at 10 uM by fluorescence assay.
Assay [2] is described as follows: Binding affinity to 5'-dabcyl/3'-fluorescein labeled cKit G-quadruplex DNA (unknown origin) assessed as change in melting temperature at 10 uM by fluorescence assay.
For assay [3], the species on record is Homo sapiens. As to the kind of experiment: Binding affinity to 5'-dabcyl/3'-fluorescein labeled human telomeric sequence G-quadruplex DNA assessed as change in melting temperature at 10 uM by fluorescence assay.
Assay [4] is described as follows: Binding affinity to cKit G-quadruplex DNA (unknown origin) assessed as compound concentration required for 30% displacement of thiazole orange from cKit G-quadruplex DNA by fluorescent intercalator displacement assay.
The species named for assay [5] is Homo sapiens. Nature of the assay: Binding affinity to human telomeric 22 G-quadruplex DNA assessed as compound concentration required for 30% displacement of thiazole orange from telomeric 22 G-quadruplex DNA by fluorescent intercalator displacement assay.
Assay [6] concerns HeLa. As to the kind of experiment: Cytotoxicity against human HeLa cells after 72 hrs by MTT assay. The class given is functional, cell-based.
Assay [7] relates to MCF7. Nature of the assay: Cytotoxicity against human MCF7 cells after 72 hrs by MTT assay. The class given is functional, cell-based. The conditions noted are these: MCF7, 72 h. Background: Tetrazolium dyes change colour on reduction, which living cells bring about.
Assay [8] has as its system Escherichia coli. Nature of the assay: Binding affinity to Escherichia coli supercoiled pBR322 DNA assessed as DNA intercalation by measuring DNA unwinding at 10 uM measured after 1 hr by ethidium bromide staining based agarose gel electrophoresis.
Assay [9] deals with DNA topoisomerase 2-alpha (Homo sapiens, UniProt P11388). Nature of the assay: Inhibition of human topoisomerase 2alpha-mediated kinetoplast DNA decatenation after 60 mins by ethidium bromide staining based agarose gel electrophoresis.
A short description of assay [10]: Binding affinity to double stranded DNA (unknown origin) assessed as compound concentration required for 30% displacement of thiazole orange from double stranded DNA by fluorescent intercalator displacement assay.
Assay [11] concerns Escherichia coli. Nature of the assay: Inhibition of Escherichia coli DNA topoisomerase 4 decatenation activity up to 100 uM using kinetoplast DNA as substrate after 60 mins by ethidium bromide staining based agarose gel electrophoresis.
Assay [12] deals with Escherichia coli. As to the kind of experiment: Binding affinity to Escherichia coli supercoiled pBR322 DNA assessed as DNA intercalation by measuring DNA unwinding at 100 uM measured after 1 hr by ethidium bromide staining based agarose gel electrophoresis.
The nature of assay [13]: Inhibition of Escherichia coli DNA topoisomerase 4 decatenation activity using kinetoplast DNA as substrate after 60 mins by ethidium bromide staining based agarose gel electrophoresis.
Assay [14] relates to Escherichia coli. As to the kind of experiment: Binding affinity to Escherichia coli supercoiled pBR322 DNA assessed as DNA intercalation by measuring DNA unwinding up to 100 uM measured after 1 hr by ethidium bromide staining based agarose gel electrophoresis.
Assay [15] concerns Escherichia coli. Nature of the assay: Binding affinity to Escherichia coli supercoiled pBR322 DNA assessed as DNA intercalation by measuring DNA unwinding at 0.1 to 10 uM measured after 1 hr by ethidium bromide staining based agarose gel electrophoresis.
In assay [16] the test system is HeLa. Nature of the assay: Potency index, ratio of ametantrone IC50 to compound IC50 for human HeLa cells. The class given is functional.
The subject of assay [17] is MCF7. As to the kind of experiment: Potency index, ratio of ametantrone IC50 to compound IC50 for human MCF7 cells. The class given is functional.

Active and inactive are the calls of the source. The rule behind the calls is not given here.

Chain of DNA topoisomerase 2-alpha (P11388 whole entry): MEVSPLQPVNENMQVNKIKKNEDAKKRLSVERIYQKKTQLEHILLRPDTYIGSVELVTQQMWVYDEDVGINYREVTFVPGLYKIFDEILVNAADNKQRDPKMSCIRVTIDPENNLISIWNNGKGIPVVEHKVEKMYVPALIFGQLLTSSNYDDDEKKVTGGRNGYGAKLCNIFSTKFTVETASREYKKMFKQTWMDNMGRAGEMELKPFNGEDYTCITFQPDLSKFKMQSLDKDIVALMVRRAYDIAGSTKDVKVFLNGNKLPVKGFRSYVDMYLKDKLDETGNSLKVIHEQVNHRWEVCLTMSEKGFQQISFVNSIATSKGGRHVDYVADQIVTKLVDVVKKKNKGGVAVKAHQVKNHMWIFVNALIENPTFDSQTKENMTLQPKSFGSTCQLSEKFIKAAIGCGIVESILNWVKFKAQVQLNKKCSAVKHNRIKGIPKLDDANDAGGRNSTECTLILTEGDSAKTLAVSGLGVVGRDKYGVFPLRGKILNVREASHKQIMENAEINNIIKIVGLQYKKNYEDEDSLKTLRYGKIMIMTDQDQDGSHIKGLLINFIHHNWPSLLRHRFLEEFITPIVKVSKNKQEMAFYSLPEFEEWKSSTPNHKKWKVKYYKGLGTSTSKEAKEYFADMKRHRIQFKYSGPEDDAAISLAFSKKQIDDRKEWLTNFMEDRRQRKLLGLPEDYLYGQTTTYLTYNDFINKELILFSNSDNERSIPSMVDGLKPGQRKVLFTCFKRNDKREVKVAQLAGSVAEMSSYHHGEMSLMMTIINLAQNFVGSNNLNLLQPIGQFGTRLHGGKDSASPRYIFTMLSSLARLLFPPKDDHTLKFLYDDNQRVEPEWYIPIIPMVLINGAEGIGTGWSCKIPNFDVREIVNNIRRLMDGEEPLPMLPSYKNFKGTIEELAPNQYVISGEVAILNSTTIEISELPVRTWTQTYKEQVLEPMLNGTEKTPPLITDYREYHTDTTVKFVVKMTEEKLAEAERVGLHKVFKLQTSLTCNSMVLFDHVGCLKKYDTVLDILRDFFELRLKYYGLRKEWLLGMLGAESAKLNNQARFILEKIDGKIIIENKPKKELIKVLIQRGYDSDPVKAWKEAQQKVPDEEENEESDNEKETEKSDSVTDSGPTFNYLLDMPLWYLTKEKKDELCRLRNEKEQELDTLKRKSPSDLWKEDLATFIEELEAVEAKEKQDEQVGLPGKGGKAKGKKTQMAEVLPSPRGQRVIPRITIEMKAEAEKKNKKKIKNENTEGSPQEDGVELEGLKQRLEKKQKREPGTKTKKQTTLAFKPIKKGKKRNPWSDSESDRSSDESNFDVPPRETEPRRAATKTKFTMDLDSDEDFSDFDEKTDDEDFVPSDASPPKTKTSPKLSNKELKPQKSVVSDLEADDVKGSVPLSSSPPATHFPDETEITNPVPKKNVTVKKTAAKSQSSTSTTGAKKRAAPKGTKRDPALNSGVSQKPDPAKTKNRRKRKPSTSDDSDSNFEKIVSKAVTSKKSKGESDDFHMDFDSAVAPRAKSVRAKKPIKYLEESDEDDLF

One may read the ΔTm as the change in melting temperature against a reference sample. Turning to `O=C(NCCCCN1CCCCC1)c1ccc2nnc3c(c2c1)C(=O)c1ccccc1-3`, the thermal shift (ΔTm) in [1] came out at 0.9 °C; in [2], 5.42 °C; in the assay filed under Homo sapiens [3], 6.63 °C.

For the molecule `O=C(NCCCCN1CCOCC1)c1ccc2nnc3c(c2c1)C(=O)c1ccccc1-3`, the deltaTm result in [1] was “inactive”. Moreover, the ΔTm turned out to be 4.37 °C in [2] and 4.82 °C in the assay filed under Homo sapiens [3].

Consider `COc1ccc2cc3[n+](cc2c1OC)CCc1cc2c(cc1-3)OCO2`, for which the Activity (in assay [4]; in the assay listed under Homo sapiens [5]) was greater than 10 µM throughout. The values for the ΔTm (in assay [1]; in [2]; in the assay filed under Homo sapiens [3]) were 0.34 °C, 10.3 °C and 9.68 °C, respectively.

As usually defined, the IC50 is the point on the concentration scale where inhibition reaches its midpoint. Low readings indicate greater potency, high ones weaker potency. Take `O=C1c2ccccc2C(=O)c2c(NCCNCCO)ccc(NCCNCCO)c21` [AMETANTRONE]: the values for the half-inhibitory concentration (IC50) in the assay with HeLa [6] and in the assay with MCF7 [7] were 0.9 µM and 0.51 µM, respectively.

Regarding `CN(C)CCOc1ccc2ccc3c4c(nnc3c2c1)-c1ccccc1C4=O`, the outcome in the assay with Escherichia coli [8] was Active. For the same molecule, the Activity was 0.47 µM in assay [4], 1.36 µM in [10] and 0.52 µM in the assay filed under Homo sapiens [5]. In addition, the results for the IC50 (in the assay with HeLa [6]; in [9]; in the assay with MCF7 [7]) were 5.96 µM, 5.44 µM and 3.72 µM, respectively. In addition, the ΔTm amounted to 5.27 °C in assay [1], 28 °C in assay [2] and 25.6 °C in the assay filed under Homo sapiens [3]. In addition, in the assay on Escherichia coli [11], the inhibition entry was “inactive”.

For the molecule `CN(C)CCOc1ccc2c(ccc3c4c(nnc32)-c2ccccc2C4=O)c1`, in the assay with Escherichia coli [12], the result was Active. Besides, the Activity worked out at 2.08 µM in assay [4] and 16 µM in assay [10]. For the same molecule, the half-inhibitory concentration (IC50) (in the assay with HeLa [6]; in [9]; in [13]; in the assay on MCF7 [7]) was greater than 100 µM in each case. For the same molecule, in the assay listed under Homo sapiens [5], the outcome was inactive. In assay [1], the deltaTm result is “inactive”. The thermal shift (ΔTm) came to 9.18 °C in assay [2] and 5.69 °C in the assay listed under Homo sapiens [3].

In the case of `CN(C)CCCOc1ccc2c(ccc3c4c(nnc32)-c2ccccc2C4=O)c1`, in the assay on Escherichia coli [12], the result was Active. The Activity in [4] worked out at 1.5 µM; in assay [10] it was 7.81 µM; in the assay listed under Homo sapiens [5], 4.75 µM. In addition, the half-maximal inhibitory concentration (IC50) was 3.05 µM in the assay with HeLa [6], 52.9 µM in assay [9], greater than 100 µM in [13] and 6.75 µM in the assay with MCF7 [7]. The thermal shift (ΔTm) was 0.85 °C in [1], 19.2 °C in [2] and 16.1 °C in the assay filed under Homo sapiens [3].

For the molecule `CN(C)CCNC(=O)c1ccc2nnc3c(c2c1)C(=O)c1ccccc1-3`, in the assay with Escherichia coli [14], the outcome was inactive. Further, the IC50 in the assay on HeLa [6] is 0.35 µM; in assay [9] it was 13.4 µM; in assay [13], greater than 100 µM; with MCF7 [7], 0.28 µM. The ΔTm was found to be 1.19 °C in assay [1], 6.8 °C in assay [2] and 5.95 °C in the assay listed under Homo sapiens [3].

For `CN(C)CCCNC(=O)c1ccc2nnc3c(c2c1)C(=O)c1ccccc1-3`, in the assay on Escherichia coli [14], the result was inactive. Also, the IC50 in the assay with HeLa [6] is 0.27 µM; in [9], 4.88 µM; in assay [13], greater than 100 µM; in the assay on MCF7 [7] it was 0.17 µM. In addition, the ΔTm in assay [1] came out at 1.95 °C; in assay [2], 8.5 °C; in the assay filed under Homo sapiens [3], 7.91 °C.

Take `COc1cccc2c1C(=O)c1c(O)c3c(c(O)c1C2=O)C[C@@](O)(C(=O)CO)C[C@@H]3O[C@H]1C[C@H](N)[C@H](O)[C@H](C)O1`: in the assay on Escherichia coli [15], the result was Active.

In turn, `CO[C@@H]1[C@@H](OC(N)=O)[C@@H](O)[C@H](Oc2ccc3c(O)c(NC(=O)c4ccc(O)c(CC=C(C)C)c4)c(=O)oc3c2C)OC1(C)C` [NOVOBIOCIN] showed an IC50 in assay [13] of 63.4 µM.

Take `CCN(CC)CCCCNC(=O)c1ccc2nnc3c(c2c1)C(=O)c1ccccc1-3`: the ΔTm in [1] turned out to be 0.53 °C; in [2] it was 3.01 °C; in the assay filed under Homo sapiens [3] it was 3.77 °C.

Regarding `O=C1c2ccccc2-c2nnc3ccccc3c21`, the result in the assay with Escherichia coli [14] was inactive. Also, the IC50 is 0.57 µM with HeLa [6], greater than 100 µM in assay [9], greater than 100 µM in assay [13] and 0.81 µM with MCF7 [7].

Turning to `CN(C)CCCn1c(=O)c2nc3ccccc3nc2c2ccccc21`, the Activity came to 3.57 µM in [4] and 10.9 µM in assay [10]. In addition, in the assay filed under Homo sapiens [5], the result was inactive.

Consider `CN(C)CCCCNC(=O)c1ccc2nnc3c(c2c1)C(=O)c1ccccc1-3`, for which the results for the “Ratio IC50” value in the assay on HeLa [16] and in the assay with MCF7 [17] were 20 and 6, respectively. For the same molecule, the outcome with Escherichia coli [14] was inactive. In addition, the IC50 with HeLa [6] was 0.045 µM; in assay [9] it was 7.08 µM; in [13], greater than 100 µM; with MCF7 [7], 0.085 µM. Further, the ΔTm in assay [1] came out at 2.7 °C; in [2], 12.4 °C; in the assay filed under Homo sapiens [3], 9.35 °C.

Take `CN(C)CCCOc1ccc2ccc3c4c(nnc3c2c1)-c1ccccc1C4=O`: the result with Escherichia coli [12] was Active. Moreover, the Activity in [4] worked out at 0.95 µM; in [10], 4.06 µM; in the assay listed under Homo sapiens [5], 2.43 µM. In addition, the IC50 with HeLa [6] is 2.81 µM; in [9], 29.1 µM; in assay [13], greater than 100 µM; in the assay with MCF7 [7] it was 9.79 µM. For the same molecule, the ΔTm was 1.96 °C in [1], 23.1 °C in [2] and 20.8 °C in the assay filed under Homo sapiens [3].
